# Data from ChEMBL document CHEMBL5726682, “Autotaxin inhibitor compounds” (2017).
# Biological target: Autotaxin (Homo sapiens, UniProt Q13822)
# Test: Inhibition Assay: ATX activity is assayed in concentrated conditioned media from Hep3B human hepatocellular carcinoma cells by measuring the amount of choline released from the substrate, lysophosphatidylcholine (LPC) as it is cleaved to LPA. Conditioned media is collected from confluent Hep3B cells and concentrated 20-fold using Centriprep-30 filter devices (Millipore). To assay for autotaxin inhibition, 10-20 μL of the concentrated conditioned media is incubated with 2.5 μL of a test compound in DMSO and 72.5-82.5 μL lyso-PLD buffer (100 mM Tris pH 9, 500 mM NaCl, 5 mM MgCl2, 5 mM CaCl2, 0.05% Triton X-100 in the presence or absence of 0.2% fatty-acid-free human serum albumin) for 15 min at 37° C. After the 15 min incubation, 5 uL of 2 mM LPC (14:0; Avanti Polar Lipids Cat#855575C) diluted in lyso-PLD buffer is added for a final concentration of 100 uM and the incubation continues for 1.5-3 hours at 37° C. 100 μL of a color mix containing 4.5 mM 4-aminoantipyrine, 2.7 mM N-ethyl-N-(2-hydroxy-3-sulfopropyl)-m-toluidine, 21 units/ml horseradish peroxidase and 3 units/mL choline oxidase in 50 mM Tris, pH 8, 4.5 mM MgCl2 is added and the incubation continued for 15 minutes at room temperature before reading the absorbance at 555 nm.
row,IC50,Compound
1,< 500 nM,Cc1c(Sc2cccc(C(=O)O)c2)c2ccc(Cl)c(F)c2n1CC(=O)N1CCCCC1CCn1cccn1 (centres undefined)
2,< 500 nM,Cc1c(Sc2cccc(C(=O)O)c2)c2ccc(Cl)c(F)c2n1CC(=O)N1CCc2c(F)cccc21
3,< 500 nM,Cc1c(Sc2cccc(C(=O)O)c2)c2ccc(Cl)c(F)c2n1CC(=O)N1CCC2(COC2)C1
4,< 500 nM,Cc1c(Sc2cccc(C(=O)O)n2)c2ccc(Cl)c(F)c2n1CC(=O)N1CCC(O)(C(F)(F)F)C1 (centres undefined)
5,< 500 nM,Cc1c(Sc2cccc(C(=O)O)c2F)c2ccc(Cl)c(F)c2n1CC(=O)N1CCC(C(C)(C)O)C1 (centres undefined)
6,< 500 nM,Cc1c(Sc2cccc(C(=O)O)c2)c2ccc(Cl)c(F)c2n1CCC(=O)Nc1ccccc1
7,< 500 nM,Cc1c(Sc2cccc(C(=O)O)c2)c2ccc(Cl)c(F)c2n1CC(=O)N1CC2(CCN(C)CC2)C1
8,< 500 nM,Cc1c(Sc2cccc(C(=O)O)n2)c2ccc(Cl)c(F)c2n1CC(=O)N1CCC2(CC1)CNC(=O)O2
9,< 500 nM,Cc1c(Sc2cccc(C(=O)O)c2)c2ccc(Cl)c(F)c2n1CC(=O)N1CCC(C#N)C1 (centres undefined)

# More lines, now with the values behind:
row,Compound,IC50
1,O=C(O)c1cccc(Sc2c(C3CC3)n(CC(=O)N3CCC(O)(C(F)(F)F)C3)c3c(F)c(Cl)ccc23)c1F (centres undefined),< 500 nM
2,O=C(O)c1cccc(Sc2c(C3CC3)n(CC(=O)N3CC4(CCC4)c4ccccc43)c3c(F)c(Cl)ccc23)c1F,< 500 nM
3,O=C(O)c1cccc(Sc2c(Cl)n(CC(=O)N3CC4(CC4)c4ccccc43)c3c(F)c(Cl)ccc23)c1F,< 500 nM
4,Cc1c(Sc2cccc(C(=O)O)c2)c2ccc(Cl)c(F)c2n1CC(=O)N1CC2(CCN(C)CC2)c2ccccc21,< 500 nM
5,O=C(O)c1cccc(Sc2c(Cl)n(CC(=O)N3CCC(O)(C(F)(F)F)C3)c3c(F)c(Cl)ccc23)c1F (centres undefined),< 500 nM
6,Cc1c(Sc2cccc(C(=O)O)c2)c2ccc(Cl)cc2n1C(=O)NCc1ccccc1,> 3000 nM
7,O=C(O)c1cccc(Sc2c(C3CC3)n(CC(=O)N3CC4(CC4)c4ccccc43)c3c(F)c(Cl)ccc23)c1F,< 500 nM
8,Cc1c(Sc2cccc(C(=O)O)c2)c2ccc(Cl)c(F)c2n1CC(=O)N1CCc2ccc(C(F)(F)F)cc21,< 500 nM
9,O=C(O)c1cccc(Sc2c(C3CC3)n(CCN3CC4(CCC4)c4ccccc43)c3c(F)c(Cl)ccc23)c1F,< 500 nM
10,Cc1c(Sc2cccc(C(=O)O)c2)c2ccc(Cl)c(F)c2n1CC(=O)N1CCC(c2cnn(C)c2)CC1,< 500 nM
